Laboratory results: patent publication US20190024193A1, “Sesquiterpene Biosensors and Uses Thereof” (priority 2017, published 2019)

Key:
PB2 bisabolol biosensor = PB2 bisabolol biosensor reporter fluorescence (Gemini reporter, GFP portion) in E. coli EPI300 host cells; assay type: cell-based, E. coli EPI300 (PB2 insert originating from Pseudomonas); details: E. coli EPI300 with PB2, high (0.01% arabinose) or low copy number
Experimental: (§1) A metagenomic library made from environmental samples obtained from hots springs, permafrost, sea water, soil, and hydrocarbon resource samples (from soil) was made using the Meta-G-Nome™ DNA Isolation Kit and CopyControl™ Fosmid Library Production Kit obtained from Epicentre. 300-400 fosmid clones from this library were obtained and mixed with a Tn5 transposase and sufficient biosensor construct (FIG. 1) was added to give about 10 biosensor inserts per fosmid. The transposase randomly integrated the biosensor construct into the fosmid vector, and the modified fosmid library with biosensor constructs was transformed into E. coli strain EPI300™ (commercially sold by Epicentre). The E. coli EPI300™ transformed with the modified fosmid library was plated on LB media with 20 μg/ml spectinomycin and 0.01% arabinose.
(§2) These functional biosensors were interrogated with (−)-α-bisabolol and clones that produced reporter fluorescence above control in response to the (−)-α-bisabolol were selected. Two bisabolol positive clones were selected and designated PB2 and PB3. PB2 was obtained from a fosmid with an insert originating from Pseudomonas, and PB3 was obtained from a fosmid with an insert originating from Bradyrhizobium.
(§3) As described above, the copy number of the fosmids with the PB2 biosensor and the PB3 biosensor can by increased in E. coli EPI300™ host cells that are treated with arabinose to induce an increase in copy number of the fosmid. E. coli EPI300™ with the PB2 or PB3 biosensors were treated (high copy number) or not treated (low copy number) with arabinose and then screened for reporter activity (Gemini reporter fluorescence from the GFP portion).
(§4) E. coli EPI300™ with fosmids containing PB2 or PB3 were grown without arabinose (low copy number) and in the presence of spectinomycin (200 μg/ml for PB2 and 500 μg/ml for PB3). The host cells were treated with different concentrations of (−)-α-bisabolol (0.0, 0.1, 0.25, 0.4, 0.5, 1.0 and 1.5 mM). FIGS. 6 and 7 show the fluorescence results for PB2 and PB3. Both biosensors show a dose response between 0.05 and 1.0 mM (−)-α-bisabolol.
(§5) E. coli EPI300™ with fosmids containing PB2 or PB3 were grown with 0.01% arabinose for high copy number of the biosensor, or grown in the absence of arabinose for low copy number of the biosensor, and then treated with a sesquiterpene: (−)-α-bisabolol, squalene, nerolidol, cintonellal, carvone, farnesene, or cineole. PB2 was also tested against linalool and PB3 was tested against ursolic acid.

PB3 bisabolol biosensor = PB3 bisabolol biosensor reporter fluorescence (Gemini reporter, GFP portion) in E. coli EPI300 host cells; assay type: cell-based, E. coli EPI300 (PB3 insert originating from Bradyrhizobium); details: for response of PB3 biosensor to stimulation with the compound: E. coli EPI300 with PB3, high (0.01% arabinose) or low copy number
Experimental: as §1, §2, §3, §4, §5

CC(C)=CCC[C@](C)(O)[C@@H]1CC=C(C)CC1 [(−)-α-bisabolol]
response of PB2 biosensor to stimulation with the compound (PB2 bisabolol biosensor): high specificity for induction

C=C(C)C1CC=C(C)C(=O)C1 (stereo not drawn) [carvone]
response of PB3 biosensor to stimulation with the compound (PB3 bisabolol biosensor): did not respond above background | response of PB2 biosensor to stimulation with the compound (PB2 bisabolol biosensor): did not respond above background

CC12CCC(CC1)C(C)(C)O2 [cineole]
response of PB3 biosensor to stimulation with the compound (PB3 bisabolol biosensor): did not respond above background | response of PB2 biosensor to stimulation with the compound (PB2 bisabolol biosensor): did not respond above background

CC(C)=CCC[C@@H](C)CC=O [cintonellal]
response of PB3 biosensor to stimulation with the compound (PB3 bisabolol biosensor): did not respond above background | response of PB2 biosensor to stimulation with the compound (PB2 bisabolol biosensor): did not respond above background

C=CC(C)(O)CCC=C(C)C (stereo not drawn) [linalool]
response of PB2 biosensor to stimulation with the compound (PB2 bisabolol biosensor): did not respond above background

C=CC(C)(O)CCC=C(C)CCC=C(C)C (stereo not drawn) [nerolidol]
response of PB3 biosensor relative to (−)-α-bisabolol (PB3 bisabolol biosensor; E. coli EPI300 with PB3, 1 mM nerolidol): comparable activity to PB3 treated with 0.2 mM (−)-α-bisabolol | response of PB2 biosensor to stimulation with the compound (PB2 bisabolol biosensor): did not respond above background

CC(C)=CCC/C(C)=C/CC/C(C)=C/CC/C=C(\C)CC/C=C(\C)CCC=C(C)C [squalene]
response of PB3 biosensor to stimulation with the compound (PB3 bisabolol biosensor): did not respond above background | response of PB2 biosensor to stimulation with the compound (PB2 bisabolol biosensor): did not respond above background

C[C@H]1[C@H](C)CC[C@]2(C(=O)O)CC[C@]3(C)C(=CC[C@@H]4[C@@]5(C)CC[C@H](O)C(C)(C)[C@@H]5CC[C@]43C)[C@H]12 [ursolic acid]
response of PB3 biosensor to stimulation with the compound (PB3 bisabolol biosensor): did not respond above background

farnesene
response of PB3 biosensor to stimulation with the compound (PB3 bisabolol biosensor): did not respond above background | response of PB2 biosensor to stimulation with the compound (PB2 bisabolol biosensor): did not respond above background
